Experiment [1] concerns M-NFS-60 cells. Kind of experiment: MTS cell viability assay, M-NFS-60. The experiment is classed as cell-based. Conditions: 72 h, read-out: Cellular Proliferation Assay M-NFS-60 (nM) GI50. The procedure:
(§1) Studies were conducted to evaluate […] anticancer activity of certain compounds described in EXAMPLE 1 using 3-(4,5-dimethylthiazol-2-yl)-5-(3-carboxymethoxyphenyl)-2-(4-sulfophenyl)-2H-tetrazolium) (MTS) cell viability assays. Results from these studies are shown in Table 2 below (see columns 3 and 4).
(§2) The cell lines M-NFS-60 (ATCC® CRL-1838™) and BaF3-CSF1R-1600 were obtained from American Type Culture Collection (ATCC, Manassas, VA, USA). The stable BaF3-CSF1R-1600 cell line expresses ETV6-CSF1R fusion protein consisting of N-terminal ETS-variant gene 6 protein (ETV6 residues M1-G337) and CSF1R tyrosine kinase (CSF1R residues L533-C972). The M-NSF-60 and BaF3-CSF1R-1600 cells were cultured in RPMI1640 medium supplemented with 10% fetal bovine serum, 0.05 mM 2-ME, 10 U/ml penicillin, and 10 µg/ml streptomycin at 37° C. and 5% CO2.
(§3) M-NFS-60 and BaF3-CSF1R-1600 cells were seeded in 96-well plates at a density of 10000 cells/100 μl and 8000 cells/100 μl per well, respectively, for 16 h and treated with vehicle or various concentrations of test compounds in medium for 72 h. Viable cells were quantified using the MTS method (Promega, Madison, WI, USA) according to manufacturer's recommended protocol. The results were determined by measuring absorbance at 490 nm using a plate reader (Victor 2). The GI50 value was defined as the amount of compound that caused 50% reduction in cell viability in comparison with DMSO-treated (vehicle) control and was calculated using Prism GraphPad Prism version 6 software (GraphPad).

Experiment [2] has as its system BaF3-CSF1R-1600 cells (express ETV6-CSF1R fusion protein). Kind of experiment: MTS cell viability assay, BaF3-CSF1R-1600. The note with it: 72 h, read-out: Cellular Proliferation Assay BaF3-CSF1R GI50. The experiment is classed as cell-based. The procedure:
as §1, §2, §3
In general terms: Tetrazolium dyes change colour on reduction, which living cells bring about.

Experiment [3] deals with T1, CSF1R kinase (recombinant N-terminal GST-CSF1R, residues L534-C972) (Homo sapiens, UniProt P07333).
T1 construct: Recombinant N-terminal GST-CSF1R (CSF1R residues L534-C972) containing the CSFIR kinase domain; made in house; host or cells: Sf9 insect cells
T1 sequence (P07333 534-972): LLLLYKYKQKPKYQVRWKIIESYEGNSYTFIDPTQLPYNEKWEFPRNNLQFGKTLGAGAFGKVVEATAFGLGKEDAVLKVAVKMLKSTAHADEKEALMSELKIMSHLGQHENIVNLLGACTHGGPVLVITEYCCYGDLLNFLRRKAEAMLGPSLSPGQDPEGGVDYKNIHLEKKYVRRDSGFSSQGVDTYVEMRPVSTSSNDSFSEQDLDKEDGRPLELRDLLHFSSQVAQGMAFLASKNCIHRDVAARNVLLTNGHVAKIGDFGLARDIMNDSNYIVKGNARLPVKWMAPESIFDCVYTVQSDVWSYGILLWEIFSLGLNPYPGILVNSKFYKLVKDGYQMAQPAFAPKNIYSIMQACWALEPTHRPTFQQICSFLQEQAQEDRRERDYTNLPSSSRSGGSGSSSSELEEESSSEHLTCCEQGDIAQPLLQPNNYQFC
The experiment can be described thus: CSF1R Kinase-Glo assay. The experiment is classed as biochemical. Conditions: 40 μM ATP, 30° C. 180 min, read-out: Enzymatic Assay CSF1R enzyme IC50. How it is done: A study was conducted to test certain compounds described in EXAMPLE 1 in inhibiting CSF1R kinase activity.
Activity of CSF1R kinase was determined using a CSF1R Kinase-Glo assay. Recombinant N-terminal GST-CSF1R (CSF1R residues L534-C972) containing the CSFIR kinase domain was expressed in Sf9 insect cells and purified. The kinase assay was carried out in 96-well plates at 30° C. for 180 min with the tested compounds in a final volume of 50 μl including the following components: 25 mM Tris-HCl pH 7.4, 4 mM MnCl2, 10 mM MgCl2, 0.01% BSA, 0.5 mM NA3VO4, 0.02% Triton X-100, 40 μM ATP, 2 mM DTT and 20 μM poly(Glu,Tyr) 4:1 peptide, and 600 ng recombinant GST-CSF1R. Following incubation, 50 μl Kinase-Glo Plus Reagent (Promega, Madison, WI, USA) was added and the mixture was incubated at 25° C. for 20 min. A 70-μL aliquot of each reaction mixture was transferred to a black microtiter plate and luminescence was measured on Wallac Vector 1420 multilabel counter (PerkinElmer, Shelton, CT, USA). Percentage inhibition values were obtained by comparison of reaction rate with the rates in control wells (i.e., in the absence of test compound). IC50 values were calculated from a series of percentage inhibition values determined at a range of test compound concentrations using GraphPad Prism version 6 software (GraphPad, San Diego, CA, USA).
(In general: Kinase-Glo reads ATP consumption through a luciferase reaction.)

`CN(C)c1ccc2c(Oc3ccc(NC(=O)Nc4ccc(Cl)cc4)cc3)ncnc2c1` [Compound 19]: the GI50 in experiment [1] is 20 to 100 nM; in experiment [2], below 20 nM. Moreover, in experiment [3], the IC50 (as a rule, the midpoint of a concentration-inhibition curve) was below 20 nM.
`COC1CCN(c2ccc3c(Oc4ccc(NC(=O)Nc5ccccc5)cc4)ncnc3c2)CC1` [Compound 2]: the GI50 in experiment [1] and in experiment [2] was 20 to 100 nM in each case. Also, the half-inhibitory concentration (IC50) in experiment [3] lay in the range of 20 to 100 nM.
Turning to `O=C(NCc1ccc(C(F)(F)F)nc1)Nc1ccc(Oc2ncnc3cc(N[C@@H]4CCCC[C@H]4O)ccc23)cc1` [Compound 43], the GI50 in experiment [1] and in experiment [2] was 100 to 1000 nM in each case. Besides, the concentration for half-maximal inhibition (IC50) in experiment [3] was 20 to 100 nM.
`O=C(NCc1ccc(C(F)(F)F)nc1)Nc1ccc(Oc2ncnc3cc(F)ccc23)cc1` [Compound 32]: the GI50 in experiment [1] is above 1000 nM; in experiment [2], 100 to 1000 nM. Besides, in experiment [3], the IC50 was in the range of 20 to 100 nM.
For `Cc1ccc(CNC(=O)Nc2ccc(Oc3ncnc4cc(N(C)C)ccc34)cc2)cn1` [Compound 65, 1-(4-((7-(dimethylamino)quinazolin-4-yl)oxy)phenyl)-3-((6-methylpyridin-3-yl)methyl)urea], in that order: 20 to 100 nM, 20 to 100 nM and below 20 nM.
On the same counts, the results for `CCN1CCN(c2ccc3c(Oc4ccc(NC(=O)NCc5ccc(C(F)(F)F)nc5)cc4)ncnc3c2)CC1` [Compound 100] are 20 to 100 nM, 20 to 100 nM and below 20 nM.
Take `CN(C)C1CCN(c2ccc3c(Oc4ccc(NC(=O)Nc5ccccc5)cc4)ncnc3c2)CC1` [Compound 11]: the GI50 in experiment [1] and in experiment [2] was 20 to 100 nM in each case. For the same compound, the IC50 in experiment [3] was 20 to 100 nM.
For `C[C@@H]1CN(c2ccc3c(Oc4ccc(NC(=O)NCc5ccc(C(F)(F)F)nc5)cc4)ncnc3c2)C[C@H](C)N1` [Compound 34, 1-(4-((7-(3,5-Dimethylpiperazin-1-yl)quinazolin-4-yl)oxy)phenyl)-3-((6-(trifluoromethyl)pyridin-3-yl)methyl)urea], the GI50 is 100 to 1000 nM in experiment [1] and below 20 nM in experiment [2]. For the same compound, the IC50 in experiment [3] was below 20 nM.
Regarding `CN(C)c1ccc2c(Oc3ccc(NC(=O)NCCc4ccccc4)cc3)ncnc2c1` [Compound 58], the figures for the GI50 in experiment [1] and in experiment [2] were 100 to 1000 nM and 20 to 100 nM, respectively. Moreover, the concentration for half-maximal inhibition (IC50) in experiment [3] is below 20 nM.
For `CN(C)c1ccc2c(Oc3ccc(NC(=O)Nc4ccccc4)cc3)ncnc2c1` [Compound 4, 1-(4-((7-(dimethylamino)quinazolin-4-yl)oxy)phenyl)-3-phenylurea], in that order: 20 to 100 nM, 20 to 100 nM and 20 to 100 nM.
For `CN(C)c1ccc2c(Oc3ccc(NC(=O)NCc4ccco4)cc3)ncnc2c1` [Compound 63], the GI50 in experiment [1] and in experiment [2] was 100 to 1000 nM in each case. For the same compound, the IC50 in experiment [3] lay within 20 to 100 nM.
For `COC[C@H]1CCCN1c1ccc2c(Oc3ccc(NC(=O)Nc4ccccc4)cc3)ncnc2c1` [Compound 10], the GI50 in experiment [1] and in experiment [2] was 100 to 1000 nM each time. For the same compound, the half-inhibitory concentration (IC50) in experiment [3] was in the range of 20 to 100 nM.
For `CN(C)c1ccc2c(Oc3ccc(NC(=O)Nc4cccc(F)c4)cc3)ncnc2c1` [Compound 18], the values for the GI50 in experiment [1] and in experiment [2] were 100 to 1000 nM and 20 to 100 nM, respectively. Moreover, the half-inhibitory concentration (IC50) in experiment [3] is below 20 nM.
`O=C(Nc1ccccc1)Nc1ccc(Oc2ncnc3cc(N4CCC[C@@H]4CO)ccc23)cc1` [Compound 1]: the GI50 in experiment [1] and in experiment [2] was 100 to 1000 nM throughout. Further, the IC50 in experiment [3] fell in the range of 20 to 100 nM.
Turning to `COc1ccc(Cl)cc1NC(=O)Nc1ccc(Oc2ncnc3cc(N(C)C)ccc23)cc1` [Compound 104], the GI50 in experiment [1] was 100 to 1000 nM; in experiment [2], 20 to 100 nM. Besides, in experiment [3], the IC50 is 20 to 100 nM.
Consider `CN(C)c1ccc2c(Oc3ccc(NC(=O)NCc4ccc(C(F)(F)F)nc4)c(Cl)c3)ncnc2c1` [Compound 33], for which the GI50 in experiment [1] and in experiment [2] was 100 to 1000 nM in each case. Further, the half-inhibitory concentration (IC50) in experiment [3] lay in the range of 20 to 100 nM.
Consider `O=C(NCc1ccc(C(F)(F)F)nc1)Nc1ccc(Oc2ncnc3cc(Br)ccc23)cc1` [Compound 31, 1-(4-((7-Bromoquinazolin-4-yl)oxy)phenyl)-3-((6-(trifluoromethyl)pyridin-3-yl)methyl)urea], for which the GI50 in experiment [1] was above 1000 nM; in experiment [2], 100 to 1000 nM. Further, in experiment [3], the IC50 lay within 100 to 1000 nM.
In the case of `CN1CCN(c2ccc3c(Oc4ccc(NC(=O)Nc5ccccc5)cc4)ncnc3c2)CC1` [Compound 3], the GI50 in experiment [1] and in experiment [2] was 20 to 100 nM in each case. Further, in experiment [3], the half-inhibitory concentration (IC50) was in the range of 20 to 100 nM.
For the compound `CN(C)c1ccc2c(Oc3ccc4c(cnn4C(=O)NCc4ccc(C(F)(F)F)nc4)c3)ncnc2c1` [Compound 68], the GI50 was 100 to 1000 nM in experiment [1] and 20 to 100 nM in experiment [2]. Moreover, the half-inhibitory concentration (IC50) in experiment [3] was in the range of 20 to 100 nM.
Regarding `COCCN1CCN(c2ccc3c(Oc4ccc(NC(=O)NCc5ccc(C(F)(F)F)nc5)cc4)ncnc3c2)CC1` [Compound 108], the GI50 in experiment [1] and in experiment [2] was 20 to 100 nM each time. Further, the IC50 in experiment [3] was 20 to 100 nM.
On to `CN(CCO)c1ccc2c(Oc3ccc(NC(=O)NCc4ccc(C(F)(F)F)nc4)cc3)ncnc2c1` [Compound 40], for which the GI50 was in the range of 100 to 1000 nM in experiment [1] and 20 to 100 nM in experiment [2]. Also, the IC50 in experiment [3] fell in the range of 20 to 100 nM.
Take `COC1CCN(c2ccc3c(Oc4ccc(NC(=O)NCc5ccc(C(F)(F)F)nc5)cc4)ncnc3c2)CC1` [Compound 24]: the GI50 in experiment [1] and in experiment [2] was 20 to 100 nM throughout. For the same compound, in experiment [3], the IC50 was below 20 nM.
Take `CN(C)c1ccc2c(Oc3ccc(NC(=O)NCc4ccc(S(N)(=O)=O)cc4)cc3)ncnc2c1` [Compound 49]: the figures for the GI50 in experiment [1] and in experiment [2] were above 1000 nM and 100 to 1000 nM, respectively. Further, the IC50 in experiment [3] is below 20 nM.
For `CN(C)CCN(C)c1ccc2c(Oc3ccc(NC(=O)NCc4ccc(C(F)(F)F)nc4)cc3)ncnc2c1` [Compound 44], the GI50 in experiment [1] fell in the range of 100 to 1000 nM; in experiment [2], 20 to 100 nM. In addition, the half-inhibitory concentration (IC50) in experiment [3] is below 20 nM.
As to `COc1cc(Oc2ncnc3cc(N(C)C)ccc23)ccc1NC(=O)NCc1ccc(C(F)(F)F)nc1` [Compound 42], the GI50 in experiment [1] lay in the range of 100 to 1000 nM; in experiment [2] it was 20 to 100 nM. Further, the concentration for half-maximal inhibition (IC50) in experiment [3] is below 20 nM.
For `CN(C)c1ccc2c(Oc3ccc(NC(=O)Nc4ccccc4F)cc3)ncnc2c1` [Compound 14], in that order: 100 to 1000 nM, below 20 nM and below 20 nM.
As for `CN1CCN(c2ccc3c(Oc4ccc(NC(=O)NCc5ccc(C(F)(F)F)nc5)cc4)ncnc3c2)CC1` [Compound 28], the GI50 in experiment [1] was 20 to 100 nM; in experiment [2] it was below 20 nM. For the same compound, the half-maximal inhibitory concentration (IC50) in experiment [3] fell in the range of 20 to 100 nM.
As to `CN(C)c1ccc2c(Oc3ccc(NC(=O)NCc4ccc(OC(F)(F)F)cc4)cc3)ncnc2c1` [Compound 57], the GI50 in experiment [1] and in experiment [2] was 100 to 1000 nM in each case. Further, the IC50 in experiment [3] was below 20 nM.
In the case of `C[C@@H]1CN(c2ccc3c(Oc4ccc(NC(=O)NCc5ccc(C(F)(F)F)nc5)cc4)ncnc3c2)C[C@H](C)N1C` [Compound 97], the GI50 in experiment [1] and in experiment [2] was 20 to 100 nM in each case. Moreover, the half-inhibitory concentration (IC50) in experiment [3] lay in the range of 20 to 100 nM.

Source of the values: US12668584B2, “Heterocyclic compounds as kinase inhibitors for therapeutic uses” (National Health Research Institutes, priority 2019, dated 2026).
